Reference: PubChem BioAssay (NCI)
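GI50 is the concentration that inhibits growth by half. The concentration for full growth arrest is given as TGI.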

Tests used:
Assay in all cases: growth of human tumour cells (NCI), 384-well format
[1] = test system: NCI/ADR-RES ovarian
[2] = test system: BT-549 breast
[3] = test system: NCI-H322M lung
[4] = test system: 786-0 renal
[5] = test system: ACHN renal
[6] = test system: K-562 leukemia
[7] = test system: SF-539 CNS
[8] = test system: PC-3 prostate
[9] = test system: SNB-19 CNS
[10] = test system: HL-60(TB) leukemia
[11] = test system: NCI-H460 NSCLC
[12] = test system: LOX IMVI melanoma
[13] = test system: OVCAR-4 ovarian
[14] = test system: OVCAR-8 ovarian
[15] = test system: MOLT-4 leukemia
[16] = test system: CCRF-CEM leukemia
[17] = test system: UACC-257 melanoma
[18] = test system: DU-145 prostate
[19] = test system: HT29 colon
[20] = test system: HCC-2998 colon
[21] = test system: T-47D breast
[22] = test system: RXF 393 renal
[23] = test system: A498 renal
[24] = test system: SR leukemia
[25] = test system: MDA-MB-231 breast
[26] = test system: EKVX NSCLC
[27] = test system: HCT-15 colon
[28] = test system: COLO 205 colon
[29] = test system: M14 melanoma
[30] = test system: OVCAR-3 ovarian
[31] = test system: A549 NSCLC
[32] = test system: HOP-92 NSCLC
[33] = test system: NCI-H23 lung
[34] = test system: SF-295 CNS
[35] = test system: MCF7 breast
[36] = test system: MDA-MB-468 breast
[37] = test system: SK-OV-3 ovarian
[38] = test system: KM12 colon
[39] = test system: SK-MEL-5 melanoma
[40] = test system: U251 glioblastoma
[41] = test system: OVCAR-5 ovarian
[42] = test system: NCI-H226 lung
[43] = test system: UACC-62 melanoma
[44] = test system: IGROV1 ovarian
[45] = test system: HCT-116 colon
[46] = test system: SK-MEL-2 melanoma
[47] = test system: SN12C renal

CN1C(=O)[C@@H](CC2CCCC2)N(C2CCCC2)c2nc(Nc3cc(Cl)c(O)c(Cl)c3)ncc21
GI50 [1]: 3.46 µM | TGI [1]: 26.7 µM | GI50 [2]: 4.02 µM | TGI [2]: 17.5 µM | GI50 [3]: 15.4 µM | TGI [3]: 97.8 µM | GI50 [4]: 8.07 µM | TGI [4]: 24.3 µM | GI50 [5]: 6.38 µM | TGI [5]: 26.2 µM | GI50 [6]: 3.57 µM | TGI [6]: 15 µM | GI50 [7]: 8.81 µM | TGI [7]: 27.2 µM | GI50 [8]: 3.42 µM | TGI [8]: 20.2 µM | GI50 [9]: 4.67 µM | TGI [9]: > 100 µM | GI50 [10]: 1.75 µM | TGI [10]: 3.17 µM | GI50 [11]: 6.22 µM | TGI [11]: 19.4 µM | GI50 [12]: 6.14 µM | TGI [12]: 19.5 µM | GI50 [13]: 5.33 µM | TGI [13]: 37.1 µM | GI50 [14]: 4.99 µM | TGI [14]: 60.5 µM | GI50 [15]: 1.67 µM | TGI [15]: 3.06 µM | GI50 [16]: 3.05 µM | TGI [16]: 8.14 µM | GI50 [17]: 6 µM | TGI [17]: 25.4 µM | GI50 [18]: 6.56 µM | TGI [18]: 64.7 µM | GI50 [19]: 35.6 µM | TGI [19]: > 100 µM | GI50 [20]: 5.31 µM | TGI [20]: 20.5 µM | GI50 [21]: 2.38 µM | TGI [21]: > 100 µM | GI50 [22]: 2.45 µM | TGI [22]: 7.68 µM | GI50 [23]: 10.1 µM | TGI [23]: 27.1 µM | GI50 [24]: 2.87 µM | TGI [24]: 8.95 µM | GI50 [25]: 7.5 µM | TGI [25]: > 100 µM | GI50 [26]: 3.55 µM | TGI [26]: 20 µM | GI50 [27]: 4.62 µM | TGI [27]: 21 µM | GI50 [28]: 27.8 µM | TGI [28]: 81.8 µM | GI50 [29]: 6.27 µM | TGI [29]: 97.7 µM | GI50 [30]: 4.55 µM | TGI [30]: 15.8 µM | GI50 [31]: 4.89 µM | TGI [31]: 70.7 µM | GI50 [32]: 6.46 µM | TGI [32]: 42 µM | GI50 [33]: 4.5 µM | TGI [33]: 35 µM | GI50 [34]: 13 µM | TGI [34]: 29.3 µM | GI50 [35]: 3.16 µM | TGI [35]: 23.1 µM | GI50 [36]: 2.89 µM | TGI [36]: 8.38 µM | GI50 [37]: 6.01 µM | TGI [37]: 45.2 µM | GI50 [38]: 4.9 µM | TGI [38]: 24.6 µM | GI50 [39]: 4.57 µM | TGI [39]: 16.4 µM | GI50 [40]: 5.66 µM | TGI [40]: 19.1 µM | GI50 [41]: 14.8 µM | TGI [41]: > 100 µM | GI50 [42]: 11.5 µM | TGI [42]: 31.7 µM | GI50 [43]: 8.84 µM | TGI [43]: 23.2 µM | GI50 [44]: 9.94 µM | TGI [44]: 39.6 µM | GI50 [45]: 3.9 µM | TGI [45]: 13.7 µM | GI50 [46]: 13.5 µM | TGI [46]: 28 µM | GI50 [47]: 10.4 µM | TGI [47]: > 100 µM

Cc1c(Br)c(Br)c2c3c1nc(N1CCNCC1)n3CCC2
GI50 [1]: 1.68 µM | TGI [1]: 3.27 µM | GI50 [2]: 1.35 µM | TGI [2]: 2.64 µM | GI50 [3]: 1.73 µM | TGI [3]: 3.42 µM | GI50 [4]: 1.55 µM | TGI [4]: 2.9 µM | GI50 [5]: 1.37 µM | TGI [5]: 2.73 µM | GI50 [6]: 1.52 µM | TGI [6]: 2.89 µM | GI50 [7]: 1.64 µM | TGI [7]: 3.01 µM | GI50 [8]: 1.32 µM | TGI [8]: 2.67 µM | GI50 [9]: 1.75 µM | TGI [9]: 3.24 µM | GI50 [10]: 0.49 µM | TGI [10]: 0.998 µM | GI50 [11]: 1.39 µM | TGI [11]: 2.73 µM | GI50 [12]: 1.49 µM | TGI [12]: 2.84 µM | GI50 [13]: 1.77 µM | TGI [13]: 3.51 µM | GI50 [14]: 1.47 µM | TGI [14]: 2.85 µM | GI50 [15]: 1.23 µM | TGI [15]: 2.48 µM | GI50 [16]: 0.885 µM | TGI [16]: 2.17 µM | GI50 [17]: 1.62 µM | TGI [17]: 2.99 µM | GI50 [18]: 1.67 µM | TGI [18]: 3.12 µM | GI50 [19]: 1.62 µM | TGI [19]: 3.06 µM | GI50 [20]: 0.976 µM | TGI [20]: 2.23 µM | GI50 [21]: 1.52 µM | TGI [21]: 2.86 µM | GI50 [22]: 1.39 µM | TGI [22]: 2.68 µM | GI50 [23]: 0.792 µM | TGI [23]: 2.07 µM | GI50 [24]: 1.03 µM | TGI [24]: 2.24 µM | GI50 [25]: 1.6 µM | TGI [25]: 3.24 µM | GI50 [26]: 1.57 µM | TGI [26]: 2.95 µM | GI50 [27]: 1.6 µM | TGI [27]: 2.98 µM | GI50 [28]: 1.8 µM | TGI [28]: 3.21 µM | GI50 [29]: 1.53 µM | TGI [29]: 2.88 µM | GI50 [30]: 1.42 µM | TGI [30]: 2.74 µM | GI50 [31]: 1.75 µM | TGI [31]: 3.35 µM | GI50 [32]: 1.75 µM | TGI [32]: 3.3 µM | GI50 [33]: 1.66 µM | TGI [33]: 3.09 µM | GI50 [34]: 1.69 µM | TGI [34]: 3.1 µM | GI50 [35]: 1.17 µM | TGI [35]: 2.42 µM | GI50 [36]: 1.15 µM | TGI [36]: 2.37 µM | GI50 [37]: 1.36 µM | TGI [37]: 2.74 µM | GI50 [38]: 1.41 µM | TGI [38]: 2.73 µM | GI50 [39]: 1.25 µM | TGI [39]: 2.51 µM | GI50 [40]: 1.66 µM | TGI [40]: 3.04 µM | GI50 [41]: 1.74 µM | TGI [41]: 3.24 µM | GI50 [42]: 1.2 µM | TGI [42]: 2.62 µM | GI50 [43]: 1.48 µM | TGI [43]: 2.82 µM | GI50 [44]: 1.31 µM | TGI [44]: 2.61 µM | GI50 [45]: 1.37 µM | TGI [45]: 2.7 µM | GI50 [46]: 1.38 µM | TGI [46]: 2.68 µM | GI50 [47]: 1.64 µM | TGI [47]: 3.02 µM
